# Data published in the supplement of paper PMC11061612.
# Assays:
# Capivasertib = compound: C1CN(CCC1(C(=O)N[C@@H](CCO)C2=CC=C(C=C2)Cl)N)C3=NC=NC4=C3C=CN4 [Capivasertib]; settings: max 10 µM
# Outline: (§1)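 After 24 hours at 37°C and 5% CO2 in 1536-well plates holding 7.5 μl of DMEM/F12 or RPMI with 10% FBS, cancer cell lines were dosed for 72 hours, with final DMSO typically 0.2%. Viability came from CellTiter-Glo 2.0 luminescence, scaled between the means of blank wells and DMSO wells. A non-linear mixed effects model fitted a two-parameter logistic curve to each dose response to give the single-agent IC50.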
# AZD1775 = compound: C=CCn1c(=O)c2cnc(Nc3ccc(N4CCN(C)CC4)cc3)nc2n1-c1cccc(C(C)(C)O)n1 [AZD1775]; settings: max 3 µM
# Outline: as §1
# Trametinib = compound: CC(=O)Nc1cccc(-n2c(=O)n(C3CC3)c(=O)c3c(Nc4ccc(I)cc4F)n(C)c(=O)c(C)c32)c1 [Trametinib]; settings: max 1 µM
# Outline: as §1
# Palbociclib = compound: CC(=O)c1c(C)c2cnc(Nc3ccc(N4CCNCC4)cn3)nc2n(C2CCCC2)c1=O [Palbociclib]; settings: max 10 µM
# Outline: as §1
# AZD1390 = compound: CC(C)n1c(=O)n(C)c2cnc3cc(F)c(-c4ccc(OCCCN5CCCCC5)nc4)cc3c21 [AZD1390]; settings: max 0.3 µM
# Outline: as §1
# Venetoclax = compound: CC1(C)CCC(CN2CCN(c3ccc(C(=O)NS(=O)(=O)c4ccc(NCC5CCOCC5)c([N+](=O)[O-])c4)c(Oc4cnc5[nH]ccc5c4)c3)CC2)=C(c2ccc(Cl)cc2)C1 [Venetoclax]; settings: max 1 µM
# Outline: as §1
# Dasatinib = compound: CC1=C(C(=CC=C1)Cl)NC(=O)C2=CN=C(S2)NC3=CC(=NC(=N3)C)N4CCN(CC4)CCO [Dasatinib]; settings: max 2 µM
# Outline: as §1
# SG3199 = compound: CC1=CN2[C@@H](C1)C=NC3=CC(=C(C=C3C2=O)OC)OCCCCCOC4=C(C=C5C(=C4)N=C[C@@H]6CC(=CN6C5=O)C)OC [SG3199]; settings: max 0.001 µM
# Outline: as §1
# AZD2811 = compound: CCN(CCO)CCCOc1ccc2c(Nc3cc(CC(=O)Nc4cccc(F)c4)[nH]n3)ncnc2c1 [AZD2811]; settings: max 1 µM
# Outline: as §1
# SN-38 = compound: CCc1c2c(nc3ccc(O)cc13)-c1cc3c(c(=O)n1C2)COC(=O)[C@]3(O)CC [SN-38]; settings: max 0.3 µM
# Outline: as §1
# AZD0156 = compound: CN(C)CCCOc1ccc(-c2ccc3ncc4c(c3c2)n(C2CCOCC2)c(=O)n4C)cn1 [AZD0156]; settings: max 3 µM
# Outline: as §1
# AZD4320 = compound: CN(CC[C@H](CSC1=CC=CC=C1)NC2=C(C=C(C=C2)S(=O)(=O)NC(=O)C3=CC=C(C=C3)N4CCC(CC4)[C@H](C5=CC=CC=C5C6=CC=C(C=C6)Cl)O)S(=O)(=O)C(F)(F)F)CCO [AZD4320]; settings: max 1 µM
# Outline: as §1
# Alisertib = compound: COc1cc(Nc2ncc3c(n2)-c2ccc(Cl)cc2C(c2c(F)cccc2OC)=NC3)ccc1C(=O)O [Alisertib]; settings: max 10 µM
# Outline: as §1
# Gefitinib = compound: COc1cc2ncnc(Nc3ccc(F)c(Cl)c3)c2cc1OCCCN1CCOCC1 [Gefitinib]; settings: max 10 µM
# Outline: as §1
# Prexasertib = compound: COc1cccc(OCCCN)c1-c1cc(Nc2cnc(C#N)cn2)n[nH]1 [Prexasertib]; settings: max 1 µM
# Outline: as §1
# Doxorubicin = compound: COc1cccc2c1C(=O)c1c(O)c3c(c(O)c1C2=O)C[C@@](O)(C(=O)CO)C[C@@H]3O[C@H]1C[C@H](N)[C@H](O)[C@H](C)O1 [Doxorubicin]; settings: max 1 µM
# Outline: as §1
# AZD5153 = compound: COc1nnc2ccc(N3CCC(c4ccc(OCCN5CCN(C)C(=O)[C@H]5C)cc4)CC3)nn12 [AZD5153]; settings: max 1 µM
# Outline: as §1
# Lapatinib = compound: CS(=O)(=O)CCNCc1ccc(-c2ccc3ncnc(Nc4ccc(OCc5cccc(F)c5)c(Cl)c4)c3c2)o1 [Lapatinib]; settings: max 10 µM
# Outline: as §1
# AZD8186 = compound: C[C@@H](Nc1cc(F)cc(F)c1)c1cc(C(=O)N(C)C)cc2c(=O)cc(N3CCOCC3)oc12 [AZD8186]; settings: max 3 µM
# Outline: as §1
# Crizotinib = compound: C[C@@H](Oc1cc(-c2cnn(C3CCNCC3)c2)cnc1N)c1c(Cl)ccc(F)c1Cl [Crizotinib]; settings: max 10 µM
# Outline: as §1
# Savolitinib = compound: C[C@@H](c1ccc2nccn2c1)n1nnc2ncc(-c3cnn(C)c3)nc21 [Savolitinib]; settings: max 1 µM
# Outline: as §1
# AZD6738 = compound: C[C@@H]1COCCN1C2=NC(=NC(=C2)C3(CC3)[S@](=N)(=O)C)C4=C5C=CNC5=NC=C4 [AZD6738]; settings: max 10 µM
# Outline: as §1
# AZD5991 = compound: Cc1c2c(nn1C)CSCc1cc(n(C)n1)CSc1cc(c3ccccc3c1)OCCCc1c(C(=O)O)n(C)c3c-2c(Cl)ccc13 [AZD5991]; settings: max 1 µM
# Outline: as §1
# AZD7648 = compound: Cc1cc2ncnn2cc1Nc1ncc2c(n1)n(C1CCOCC1)c(=O)n2C [AZD7648]; settings: max 10 µM
# Outline: as §1
# Taselisib = compound: Cc1nc(-c2cn3c(n2)-c2ccc(-c4cnn(C(C)(C)C(N)=O)c4)cc2OCC3)n(C(C)C)n1 [Taselisib]; settings: max 10 µM
# Outline: as §1
# Selumetinib = compound: Cn1cnc2c(F)c(Nc3ccc(Br)cc3Cl)c(C(=O)NOCCO)cc21 [Selumetinib]; settings: max 10 µM
# Outline: as §1
# Olaparib = compound: O=C(c1cc(Cc2n[nH]c(=O)c3ccccc23)ccc1F)N1CCN(C(=O)C2CC2)CC1 [Olaparib]; settings: max 10 µM
# Outline: as §1
cell line,measurement,setting,value
ALL-PO (B-Lymphoblastic Leukemia),"IC50, cell viability 72 h",Capivasertib,7.8 µM
same,"IC50, cell viability 72 h",AZD1775,510 nM
same,"IC50, cell viability 72 h",Trametinib,> 1000 nM
same,"IC50, cell viability 72 h",Palbociclib,4.65 µM
same,"IC50, cell viability 72 h",AZD1390,> 300 nM
same,"IC50, cell viability 72 h",Venetoclax,733 nM
same,"IC50, cell viability 72 h",Dasatinib,> 2000 nM
same,"IC50, cell viability 72 h",SG3199,> 1 nM
same,"IC50, cell viability 72 h",AZD2811,6.76 nM
same,"IC50, cell viability 72 h",SN-38,2.05 nM
same,"IC50, cell viability 72 h",AZD0156,> 3000 nM
same,"IC50, cell viability 72 h",AZD4320,21.4 nM
same,"IC50, cell viability 72 h",Alisertib,55.9 nM
same,"IC50, cell viability 72 h",Gefitinib,> 10 µM
same,"IC50, cell viability 72 h",Prexasertib,17.7 nM
same,"IC50, cell viability 72 h",Doxorubicin,166 nM
same,"IC50, cell viability 72 h",AZD5153,67.2 nM
same,"IC50, cell viability 72 h",Lapatinib,5.96 µM
same,"IC50, cell viability 72 h",AZD8186,> 3000 nM
same,"IC50, cell viability 72 h",Crizotinib,1.81 µM
same,"IC50, cell viability 72 h",Savolitinib,> 1000 nM
same,"IC50, cell viability 72 h",AZD6738,2.12 µM
same,"IC50, cell viability 72 h",AZD5991,57.4 nM
same,"IC50, cell viability 72 h",AZD7648,> 10 µM
same,"IC50, cell viability 72 h",Taselisib,5290 nM
same,"IC50, cell viability 72 h",Selumetinib,> 10 µM
same,"IC50, cell viability 72 h",Olaparib,7.82 µM
BE2-M17 (Neuroblastoma),"IC50, cell viability 72 h",Capivasertib,> 10 µM
same,"IC50, cell viability 72 h",AZD1775,900 nM
same,"IC50, cell viability 72 h",Trametinib,127 nM
same,"IC50, cell viability 72 h",Palbociclib,> 10 µM
same,"IC50, cell viability 72 h",AZD1390,> 300 nM
same,"IC50, cell viability 72 h",Venetoclax,> 1000 nM
same,"IC50, cell viability 72 h",Dasatinib,> 2000 nM
same,"IC50, cell viability 72 h",SG3199,> 1 nM
same,"IC50, cell viability 72 h",AZD2811,> 1000 nM
same,"IC50, cell viability 72 h",SN-38,14.5 nM
same,"IC50, cell viability 72 h",AZD0156,> 3000 nM
same,"IC50, cell viability 72 h",AZD4320,> 1000 nM
same,"IC50, cell viability 72 h",Alisertib,1910 nM
same,"IC50, cell viability 72 h",Gefitinib,> 10 µM
same,"IC50, cell viability 72 h",Prexasertib,24.9 nM
same,"IC50, cell viability 72 h",Doxorubicin,425 nM
same,"IC50, cell viability 72 h",AZD5153,> 1000 nM
same,"IC50, cell viability 72 h",Lapatinib,> 10 µM
same,"IC50, cell viability 72 h",AZD8186,> 3000 nM
same,"IC50, cell viability 72 h",Crizotinib,8.33 µM
same,"IC50, cell viability 72 h",Savolitinib,> 1000 nM
same,"IC50, cell viability 72 h",AZD6738,4.84 µM
same,"IC50, cell viability 72 h",AZD5991,324 nM
same,"IC50, cell viability 72 h",AZD7648,> 10 µM
same,"IC50, cell viability 72 h",Taselisib,2620 nM
same,"IC50, cell viability 72 h",Selumetinib,9.3 µM
same,"IC50, cell viability 72 h",Olaparib,> 10 µM
BPH-1 (Non-Cancerous),"IC50, cell viability 72 h",Capivasertib,> 10 µM
same,"IC50, cell viability 72 h",AZD1775,882 nM
same,"IC50, cell viability 72 h",Trametinib,80.2 nM
same,"IC50, cell viability 72 h",Palbociclib,> 10 µM
same,"IC50, cell viability 72 h",AZD1390,> 300 nM
same,"IC50, cell viability 72 h",Venetoclax,> 1000 nM
same,"IC50, cell viability 72 h",Dasatinib,127 nM
same,"IC50, cell viability 72 h",SG3199,> 1 nM
same,"IC50, cell viability 72 h",AZD2811,> 1000 nM
same,"IC50, cell viability 72 h",SN-38,6.84 nM
same,"IC50, cell viability 72 h",AZD0156,> 3000 nM
same,"IC50, cell viability 72 h",AZD4320,> 1000 nM
same,"IC50, cell viability 72 h",Alisertib,1350 nM
same,"IC50, cell viability 72 h",Gefitinib,5.9 µM
same,"IC50, cell viability 72 h",Prexasertib,> 1000 nM
same,"IC50, cell viability 72 h",Doxorubicin,312 nM
same,"IC50, cell viability 72 h",AZD5153,69.4 nM
same,"IC50, cell viability 72 h",Lapatinib,0.836 µM
same,"IC50, cell viability 72 h",AZD8186,> 3000 nM
same,"IC50, cell viability 72 h",Crizotinib,> 10 µM
same,"IC50, cell viability 72 h",Savolitinib,> 1000 nM
same,"IC50, cell viability 72 h",AZD6738,> 10 µM
same,"IC50, cell viability 72 h",AZD5991,> 1000 nM
same,"IC50, cell viability 72 h",AZD7648,> 10 µM
same,"IC50, cell viability 72 h",Taselisib,379 nM
same,"IC50, cell viability 72 h",Selumetinib,4.72 µM
same,"IC50, cell viability 72 h",Olaparib,> 10 µM
